The text below walks through data of patent US5214063A, “4-aminobutyric acid compounds, compositions and methods of use for treating disorders related to a dysfunction of GABAB receptors” (Adir et Compagnie, priority 1990, dated 1993).

The subject of the test is hippocampal preparations (CA3 pyramidal cells). Briefly: Inhibition of excitation activity induced by convulsants (bicucullin) in hippocampal preparations. The class given is cell-based. As to conditions: 10 min; excitation induced by bicucullin (50 μM), compound perfused 10 minutes, adult female rat hippocampal preparations; read-out: inhibiting concentration 50 (IC50). As for the experimental part:
Hippocampal preparations were prepared from the brains of sacrificed adult female rats. Transverse sections were placed in a preservative medium. After 1 hour and 30 minutes' incubation, the isolated preparations were placed under registration, perfused with a saline solution and oxygenated. Spontaneous potentials appear which are associated with CA3 pyramidal cells. Excitation is induced by the addition of bicucullin (50 μM).
The compounds of the invention, at various concentrations, or baclofen are then added.
The baclofen or the compounds of the invention are perfused for periods of 10 minutes. The excitation rate is calculated during the four minutes preceding the perfusion of baclofen or the compounds of the invention and during the last four minutes of the perfusion of the products to be studied.
The inhibition is expressed as percentage excitation in relation to the initial rate, which permits the determination of an inhibiting concentration 50 (IC50). The compounds of the invention have an IC50 of from 5 to 20 μM; baclofen in this test has an IC50 of approximately 50 μM.

For the compound `NCC(CC(=O)O)c1ccc(Cl)cc1` (stereo not shown) [baclofen, 4-amino-3-(4-chlorophenyl)butyric acid], the IC50 is approximately 50 µM.
